Where “and” joins values, the source holds several entries; their conditions need not be identical. Equal entries are not always repeated. Toxic doses and inconclusive results are not listed. Rule for the calls: active = survival T/C of 150% or more; inactive = T/C below 125% in these data.
System: P388 leukemia ip, CD2F1 mice, survival T/C
Assay: NCI In Vivo Anticancer Drug Screen. Data for tumor model P388 Leukemia (intraperitoneal) in CD2F1 (CDF1) mice
Conditions: endpoint: median survival time, higher = longer survival
Method in brief: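 Mice carrying the transplanted tumor received test compound or vehicle. Survival was recorded in each group, and the value is the treated-group measurement divided by that of the vehicle-treated control group.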

[1] = dose: 50.0 mg/kg/injection, schedule: Q01DX005 (ip), vehicle: saline with Tween-80
[2] = dose: 100.0 mg/kg/injection, schedule: Q01DX005 (ip), vehicle: saline with Tween-80
[3] = dose: 200.0 mg/kg/injection, schedule: Q01DX005 (ip), vehicle: saline with Tween-80
[4] = dose: 60.0 mg/kg/injection, schedule: Q01DX005 (ip), vehicle: Klucel (hydroxypropylcellulose) (HPC)
[5] = dose: 120.0 mg/kg/injection, schedule: Q01DX005 (ip), vehicle: Klucel (hydroxypropylcellulose) (HPC)
[6] = dose: 240.0 mg/kg/injection, schedule: Q01DX005 (ip), vehicle: Klucel (hydroxypropylcellulose) (HPC)
[7] = dose: 50.0 mg/kg/injection, schedule: Q01DX005 (ip), vehicle: Klucel (hydroxypropylcellulose) (HPC)
[8] = dose: 100.0 mg/kg/injection, schedule: Q01DX005 (ip), vehicle: Klucel (hydroxypropylcellulose) (HPC)
[9] = dose: 200.0 mg/kg/injection, schedule: Q01DX005 (ip), vehicle: Klucel (hydroxypropylcellulose) (HPC)
[10] = dose: 6.25 mg/kg/injection, schedule: Q01DX009 (ip), vehicle: saline with Tween-80
[11] = dose: 12.5 mg/kg/injection, schedule: Q01DX009 (ip), vehicle: saline with Tween-80
[12] = dose: 25.0 mg/kg/injection, schedule: Q01DX009 (ip), vehicle: saline with Tween-80

Measured: T/C

CN(C)CCCNc1c2ccccc2nc2cccc([N+](=O)[O-])c12
inactive: dose: 0.03 mg/kg/injection, schedule: Q01DX009 (ip), vehicle: water 102 % of control and 108 % of control | dose: 0.06 mg/kg/injection, schedule: Q01DX009 (ip), vehicle: water 107 % of control and 115 % of control (2×) | dose: 0.13 mg/kg/injection, schedule: Q01DX009 (ip), vehicle: water 115 % of control and 120 % of control and 123 % of control | dose: 0.25 mg/kg/injection, schedule: Q01DX009 (ip), vehicle: water 107 % of control and 96 % of control | dose: 8.0 micrograms/kg/injection, schedule: Q01DX009 (ip), vehicle: saline 100 % of control | dose: 16.0 micrograms/kg/injection, schedule: Q01DX009 (ip), vehicle: saline 119 % of control | dose: 32.0 micrograms/kg/injection, schedule: Q01DX009 (ip), vehicle: saline 100 % of control | dose: 63.0 micrograms/kg/injection, schedule: Q01DX009 (ip), vehicle: saline 123 % of control | dose: 125.0 micrograms/kg/injection, schedule: Q01DX009 (ip), vehicle: saline 117 % of control | dose: 250.0 micrograms/kg/injection, schedule: Q01DX009 (ip), vehicle: saline 116 % of control

CCCC1C(=O)N2C(N(C)C)=Nc3ccc(C)cc3N2C1=O (stereo not given)
inactive: dose: 50.0 mg/kg/injection, schedule: Q01DX009 (ip), vehicle: suspension in saline 101 % of control | dose: 100.0 mg/kg/injection, schedule: Q01DX009 (ip), vehicle: suspension in saline 104 % of control | dose: 200.0 mg/kg/injection, schedule: Q01DX009 (ip), vehicle: suspension in saline 106 % of control | dose: 400.0 mg/kg/injection, schedule: Q01DX009 (ip), vehicle: suspension in saline 97 % of control

O=S1(=O)N=C(N2CCCCC2)c2ccccc21
inactive: [1] 99 % of control | [2] 96 % of control | [3] 97 % of control

CC(=O)/C=C1/NC=CN(C(=O)c2ccccc2)C1c1ccccc1 (stereo not given)
inactive: [4] 94 % of control | [5] 92 % of control | [6] 87 % of control

C=C=C(C)C(C(C)C)N1CCCC1 (stereo not given)
inactive: dose: 50.0 mg/kg/injection, schedule: Q01DX005 (ip), vehicle: saline 113 % of control | dose: 100.0 mg/kg/injection, schedule: Q01DX005 (ip), vehicle: saline 104 % of control

CCOc1ccccc1C1N(C)CCCN1C
inactive: dose: 6.25 mg/kg/injection, schedule: Q01DX009 (ip), vehicle: saline sonified 90 % of control | dose: 12.5 mg/kg/injection, schedule: Q01DX009 (ip), vehicle: saline sonified 95 % of control | dose: 25.0 mg/kg/injection, schedule: Q01DX009 (ip), vehicle: saline sonified 86 % of control

Cn1cnc([N+](=O)[O-])c1SCC(=O)O
inactive: dose: 50.0 mg/kg/injection, schedule: Q01DX009 (ip), vehicle: Klucel (hydroxypropylcellulose) (HPC) 108 % of control | dose: 100.0 mg/kg/injection, schedule: Q01DX009 (ip), vehicle: Klucel (hydroxypropylcellulose) (HPC) 122 % of control | dose: 200.0 mg/kg/injection, schedule: Q01DX009 (ip), vehicle: Klucel (hydroxypropylcellulose) (HPC) 96 % of control | dose: 400.0 mg/kg/injection, schedule: Q01DX009 (ip), vehicle: Klucel (hydroxypropylcellulose) (HPC) 103 % of control

Cc1c2c(ccc3ccccc32)c[n+]2ccccc12
inactive: dose: 6.25 mg/kg/injection, schedule: Q04DX003 (ip), vehicle: other 105 % of control | dose: 6.25 mg/kg/injection, schedule: Q04DX003 (ip), vehicle: saline 109 % of control | dose: 12.5 mg/kg/injection, schedule: Q04DX003 (ip), vehicle: other 105 % of control | dose: 12.5 mg/kg/injection, schedule: Q04DX003 (ip), vehicle: saline 109 % of control

CCN(CC)c1ncnc2c1nnn2C
inactive: [1] 101 % of control | [2] 100 % of control | [3] 107 % of control

CC12CCC3c4ccc(O)cc4CCC3C1C/C(=C\C(=O)O)C2O (stereo not given)
inactive: dose: 25.0 mg/kg/injection, schedule: Q04DX003 (ip), vehicle: Klucel (hydroxypropylcellulose) (HPC) 116 % of control | dose: 50.0 mg/kg/injection, schedule: Q04DX003 (ip), vehicle: Klucel (hydroxypropylcellulose) (HPC) 100 % of control and 104 % of control and 110 % of control | dose: 100.0 mg/kg/injection, schedule: Q04DX003 (ip), vehicle: Klucel (hydroxypropylcellulose) (HPC) 100 % of control (2×) and 111 % of control | dose: 200.0 mg/kg/injection, schedule: Q04DX003 (ip), vehicle: Klucel (hydroxypropylcellulose) (HPC) 99 % of control and 100 % of control and 121 % of control

O=C1/C(=C/c2ccccc2)CCCC12C(c1ccccc1)N2Cc1ccccc1 (stereo not given)
inactive: [4] 91 % of control | [5] 90 % of control | [6] 88 % of control

CSc1nc(N)c(NS(=O)(=O)c2ccccc2[N+](=O)[O-])c(=O)[nH]1
inactive: [7] 100 % of control | [8] 90 % of control | [9] 90 % of control

N#C/C(=C\c1ccncc1)c1ccccc1
inactive: dose: 3.13 mg/kg/injection, schedule: Q01DX009 (ip), vehicle: saline with Tween-80 90 % of control | [10] 95 % of control | [11] 92 % of control | [12] 109 % of control

OC(CC1CCCCN1)c1cc(C(F)(F)F)nc2c(C(F)(F)F)cccc12 (stereo not given)
inactive: [11] 101 % of control | [12] 100 % of control | dose: 50.0 mg/kg/injection, schedule: Q01DX009 (ip), vehicle: saline with Tween-80 108 % of control

S=c1sc2ccccc2n1CN1CCOCC1
inactive: dose: 25.0 mg/kg/injection, schedule: Q01DX005 (ip), vehicle: saline with Tween-80 107 % of control | [1] 104 % of control and 114 % of control | [2] 121 % of control and 124 % of control

NC(=O)CC1(O)CCCCC1
inactive: dose: 25.0 mg/kg/injection, schedule: Q01DX009 (ip), vehicle: saline 100 % of control | dose: 50.0 mg/kg/injection, schedule: Q01DX009 (ip), vehicle: saline 100 % of control | dose: 100.0 mg/kg/injection, schedule: Q01DX009 (ip), vehicle: saline 100 % of control

[Co].[NH-]CCC[NH-].[NH-]CCC[NH-].[NH-]CCC[NH-]
inactive: dose: 25.0 mg/kg/injection, schedule: Q04DX002 (ip), vehicle: saline 99 % of control | dose: 50.0 mg/kg/injection, schedule: Q04DX002 (ip), vehicle: saline 98 % of control | dose: 100.0 mg/kg/injection, schedule: Q04DX002 (ip), vehicle: saline 100 % of control

COc1ccc(C(=O)OC2(C)CC(C)(C)N=N2)cc1 (stereo not given)
inactive: dose: 12.5 mg/kg/injection, schedule: Q01DX009 (ip), vehicle: other 105 % of control | dose: 25.0 mg/kg/injection, schedule: Q01DX009 (ip), vehicle: other 108 % of control | dose: 50.0 mg/kg/injection, schedule: Q01DX009 (ip), vehicle: other 108 % of control | dose: 100.0 mg/kg/injection, schedule: Q01DX009 (ip), vehicle: other 108 % of control | dose: 200.0 mg/kg/injection, schedule: Q01DX009 (ip), vehicle: other 108 % of control

CCO/C(C)=N\c1nc(C)[nH]c1C(N)=O
inactive: [10] 120 % of control | [11] 106 % of control | [12] 87 % of control | dose: 200.0 mg/kg/injection, schedule: Q01DX009 (ip), vehicle: saline 86 % of control

CCSC(C(OC(C)=O)C(OC(C)=O)C(OC(C)=O)C(COC(C)=O)OC(C)=O)n1cnc2c(Cl)ncnc21 (stereo not given)
inactive: [1] 100 % of control | [2] 90 % of control | [3] 96 % of control

CCC(c1ccc(O)cc1)c1cc2c(cc1OCC(=O)OC)OCO2 (stereo not given)
inactive: [1] 97 % of control | [2] 93 % of control | [3] 88 % of control

CC(=O)Nn1c(N)nc2cc(C)ccc21
inactive: dose: 200.0 mg/kg/injection, schedule: Q01DX001 (ip), vehicle: saline 98 % of control | dose: 400.0 mg/kg/injection, schedule: Q01DX001 (ip), vehicle: saline 93 % of control

O=C(/C=C/c1ccccc1)NCCC1(O)C(=O)Nc2ccccc21 (stereo not given)
inactive: dose: 25.0 mg/kg/injection, schedule: Q01DX005 (ip), vehicle: Klucel (hydroxypropylcellulose) (HPC) 102 % of control | [7] 100 % of control | [8] 90 % of control | [9] 88 % of control

O=C1C=CC(=O)C2=C1CCCC2
inactive: dose: 2.0 mg/kg/injection, schedule: Q01DX009 (ip), vehicle: saline with Tween-80 100 % of control | dose: 2.9 mg/kg/injection, schedule: Q01DX009 (ip), vehicle: saline with Tween-80 100 % of control | dose: 3.12 mg/kg/injection, schedule: Q01DX009 (ip), vehicle: saline with Tween-80 100 % of control | dose: 4.5 mg/kg/injection, schedule: Q01DX009 (ip), vehicle: saline with Tween-80 100 % of control | [10] 100 % of control | dose: 6.5 mg/kg/injection, schedule: Q01DX009 (ip), vehicle: saline with Tween-80 100 % of control | [11] 102 % of control

From PubChem BioAssay AID330 (DTP/NCI, 2004)
